Assay results as given in patent US10407445B2, “Hepatitis C virus inhibitors” (ENANTA PHARMACEUTICALS, INC., priority 2013, dated 2019).

How the values were obtained:
Format in all cases: cell-based
Conditions in all cases: Hepatitis C virus
[1] = test system: HCV genotype 1a replicon, NS5A M28V Q30R; experiment: Transient replication assay, GT1a NS5A M28V Q30R
[2] = test system: HCV genotype 1a replicon, NS5A Q30E; experiment: Transient replication assay, GT1a NS5A Q30E
[3] = test system: HCV genotype 1a replicon, NS5A Y93H; experiment: Transient replication assay, GT1a NS5A Y93H
[4] = test system: HCV genotype 1a replicon, NS5A M28V; experiment: Transient replication assay, GT1a NS5A M28V
[5] = test system: HCV genotype 1a replicon, NS5A Q30K; experiment: Transient replication assay, GT1a NS5A Q30K
[6] = test system: HCV genotype 1a replicon, NS5A Q30R Y93C; experiment: Transient replication assay, GT1a NS5A Q30R Y93C
[7] = test system: HCV genotype 1a replicon, NS5A M28V Y93H; experiment: Transient replication assay, GT1a NS5A M28V Y93H
[8] = test system: HCV genotype 1a replicon, NS5A K24N Q30R; experiment: Transient replication assay, GT1a NS5A K24N Q30R
[9] = test system: HCV genotype 1a replicon, NS5A Q30R Y93H; experiment: Transient replication assay, GT1a NS5A Q30R Y93H
[10] = test system: GT2a-3a-S52 replicon; experiment: Stable replicon assay, comparison to daclatasvir, GT2a-3a-S52
Excerpt: The plasmid pSG-hRlucNeo-JFH1 was generated from pSG-Neo-JFH1 (Kato et al. 2003, Gastroentrology 125:1808-1817). A fragment containing the JFH-1 5′ NTR-hRluc-Neo gene and two unique restriction sites (AgeI and PmeI) was synthesized (Integrated DNA Technologies, Coralville, Iowa). The resulting plasmid was digested with AgeI and PmeI and the excised fragment (5′NTR-hRluc-Neo) was ligated into pSG-Neo-JFH1 digested with the same enzymes to generate pSG-hRlucNeo-JFH1. To allow expression of heterologous NS5A sequences, an NS5A shuttle vector was generated from pSG-Neo-JFH1, in which the entire coding sequence of NS5A plus the first eight codons of NS5B were replaced with an AfeI restriction site. This was done by Infusion cloning (Clontech, Mountain View, Calif.) from two PCR products that were generated using pSG-Neo-JFH1 as a template and the following primer pairs: […]
Stable HCV replicon cell lines were grown in complete media (Dulbecco's modified Eagle medium [DMEM], 2 mM L-glutamine, 0.1 mM essential amino acids, 1 mM sodium pyruvate, 10% fetal bovine serum) with the addition 500 μg/ml […] (G418). […] For stable and transient replicon assays, luciferase activity of compound-treated cells was measured relative to DMSO-treated cells after 72 h incubation using RENILLA-GLO™ Luciferase Assay (Promega). […]

SMILES	EC50 [1]	EC50 [2]	EC50 [3]	EC50 [4]	EC50 [5]	EC50 [6]	EC50 [7]	EC50 [8]	EC50 [9]	EC50 [10]
COC(=O)N[C@H](C(=O)N1CCC[C@H]1c1nc(-c2ccc(-c3ccc(-c4c[nH]c([C@@H]5CCCN5C(=O)[C@@H](NC(=O)OC)C(C)C)n4)cc3)cc2)c[nH]1)C(C)C [Daclatasvir, reference compound]	1.2 nM	81.5 nM	65 nM	0.0073 nM	7.9 nM	26 nM	17.5 nM	8 nM	243 nM	0.39 nM
COC(=O)N[C@H](C(=O)N1C[C@]2(CCCOC2)C[C@H]1c1ncc(-c2ccc(-c3ccc4c(ccc5nc([C@@H]6C[C@@H]7CCC[C@@H]7N6C(=O)[C@@H](NC(=O)OC)C(C)C)[nH]c54)c3)cc2)[nH]1)C(C)C [Compound 16]	0.16 nM	0.74 nM	10 nM	0.0015 nM	0.05 nM	1.4 nM	15 nM	1.2 nM	38 nM	0.54 nM
